Here are results for 23 molecules from patent US10100022B2, “Sphingosine kinase inhibitors” (University of Virginia Patent Foundation, priority 2014, dated 2018).

As usually defined, the Ki is a measure of affinity in units of concentration, obtained from inhibition or displacement.

The target of test [1] is T1, human sphingosine kinase type 1 (hSPHK1) (Homo sapiens, UniProt Q9NYA1).
T1 construct: made in house; host or cells: Sf9 insect cells (baculovirus)
Put plainly: Sphingosine kinase assay, recombinant human SPHK1 ([32P]S1P product, scintillation counting). The test is classed as biochemical. To be noted: read-out: activity hSPHK1 (range estimate of KI). In a few lines:
(§1)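 SPHK1 from cleared lysates of baculovirus-infected Sf9 cells, unpurified; SPHK2 partially purified from Sf9 lysates. Standard sphingosine kinase protocol; [32P]S1P product captured on cation exchange paper and counted by scintillation.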

Test [2] addresses T2, human sphingosine kinase type 2 (hSPHK2) (Homo sapiens, UniProt Q9NRA0).
T2 construct: purchased; host or cells: Sf9 insect cells (baculovirus)
T2 sequence (Q9NRA0 1-654): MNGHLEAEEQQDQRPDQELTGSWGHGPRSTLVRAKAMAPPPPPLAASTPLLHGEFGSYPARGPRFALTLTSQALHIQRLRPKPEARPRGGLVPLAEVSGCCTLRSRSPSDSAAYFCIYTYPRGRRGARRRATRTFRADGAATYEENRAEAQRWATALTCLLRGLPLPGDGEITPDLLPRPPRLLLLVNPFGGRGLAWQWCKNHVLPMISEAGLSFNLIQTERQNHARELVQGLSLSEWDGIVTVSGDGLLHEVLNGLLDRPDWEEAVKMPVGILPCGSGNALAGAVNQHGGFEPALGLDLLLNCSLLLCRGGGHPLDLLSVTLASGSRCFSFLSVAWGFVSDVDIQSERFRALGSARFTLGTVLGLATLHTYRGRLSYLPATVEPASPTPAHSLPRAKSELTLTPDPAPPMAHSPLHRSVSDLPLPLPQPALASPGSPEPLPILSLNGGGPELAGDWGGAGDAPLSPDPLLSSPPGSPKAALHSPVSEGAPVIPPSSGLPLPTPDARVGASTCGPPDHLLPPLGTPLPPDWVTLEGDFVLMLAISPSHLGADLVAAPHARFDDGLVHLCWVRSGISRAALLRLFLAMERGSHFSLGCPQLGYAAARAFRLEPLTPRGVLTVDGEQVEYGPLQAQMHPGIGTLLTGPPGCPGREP
As to the kind of experiment: Sphingosine kinase assay, recombinant human SPHK2 ([32P]S1P product, scintillation counting). The test is classed as biochemical. To be noted: read-out: activity hSPHK2 (range estimate of KI). The method, boiled down: as §1

Structures can show the parent of a compound that is named as a salt.

T1 sequence (Q9NYA1 whole entry): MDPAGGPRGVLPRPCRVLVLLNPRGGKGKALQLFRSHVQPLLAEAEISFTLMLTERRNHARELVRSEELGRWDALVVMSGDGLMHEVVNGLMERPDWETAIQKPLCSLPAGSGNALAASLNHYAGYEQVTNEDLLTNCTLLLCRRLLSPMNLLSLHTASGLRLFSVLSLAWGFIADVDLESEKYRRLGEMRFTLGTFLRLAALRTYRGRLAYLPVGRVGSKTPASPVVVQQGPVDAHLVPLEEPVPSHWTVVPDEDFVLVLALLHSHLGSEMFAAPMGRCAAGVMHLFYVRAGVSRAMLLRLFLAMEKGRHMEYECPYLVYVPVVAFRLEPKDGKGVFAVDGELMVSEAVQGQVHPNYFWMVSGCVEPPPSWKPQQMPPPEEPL

In the case of `N=C(N)N1CCC[C@H]1c1nc(-c2ccc3cc(OCc4cccc(C(F)(F)F)c4)ccc3c2)no1` [Compound 67A, (S)-amino(2-(3-(6-((3-(trifluoromethyl)benzyl)oxy)naphthalen-2-yl)-1,2,4-oxadiazol-5-yl)pyrrolidin-1-yl)methaniminium chloride], the Ki was over 10 µM in test [1] and 1 to 10 µM in test [2].
Regarding `N=C(N)N1CCC[C@H]1c1nc(-c2ccc3cc(OCc4cccc(Cl)c4)ccc3c2)no1` [Compound 68A, (S)-amino(2-(3-(6-((3-chlorobenzyl)oxy)naphthalen-2-yl)-1,2,4-oxadiazol-5-yl)pyrrolidin-1-yl)methaniminium chloride], the Ki in test [1] and in test [2] was over 10 µM each time.
`N=C(N)N1CCC[C@H]1c1nc(-c2ccc3cc(OCc4ccc(Cl)cc4)ccc3c2)no1` [Compound 69A, (S)-amino(2-(3-(6-((4-chlorobenzyl)oxy)naphthalen-2-yl)-1,2,4-oxadiazol-5-yl)pyrrolidin-1-yl)methaniminium chloride]: the Ki in test [1] and in test [2] was over 10 µM each time.
Take `N#Cc1ccc(COc2ccc3cc(-c4noc([C@@H]5CCCN5C(=N)N)n4)ccc3c2)cc1` [Compound 70A, (S)-amino(2-(3-(6-((4-cyanobenzyl)oxy)naphthalen-2-yl)-1,2,4-oxadiazol-5-yl)pyrrolidin-1-yl)methaniminium chloride]: the inhibition constant (Ki) was over 10 µM in test [1] and 1 to 10 µM in test [2].
`N=C(N)N1CCC[C@H]1c1nc(-c2ccc3cc(OCc4ccc(-c5ccccc5)cc4)ccc3c2)no1` [Compound 72A, (S)-(2-(3-(6-([1,1′-biphenyl]-4-ylmethoxy)naphthalen-2-yl)-1,2,4-oxadiazol-5-yl)pyrrolidin-1-yl)(amino)methaniminium chloride]: the Ki was over 10 µM in test [1] and 1 to 10 µM in test [2].
Regarding `N=C(N)N1CCC[C@H]1c1nc(-c2ccc3cc(OCc4ccccc4)ccc3c2)no1` [Compound 73A, (S)-amino(2-(3-(6-(benzyloxy)naphthalen-2-yl)-1,2,4-oxadiazol-5-yl)pyrrolidin-1-yl)methaniminium chloride], the Ki in test [1] and in test [2] was over 10 µM in each case.
For `CCCCCCCCn1cc(-c2noc([C@@H]3CCCN3C(=N)N)n2)c2ccccc21` [Compound 74A, (S)-amino(2-(3-(1-octyl-1H-indol-3-yl)-1,2,4-oxadiazol-5-yl)pyrrolidin-1-yl)methaniminium chloride], the Ki in test [1] is over 10 µM; in test [2] it was 1 to 10 µM.
On to `CCCCCCCCn1ccc2ccc(-c3noc([C@@H]4CCCN4C(=N)N)n3)cc21` [Compound 75A, (S)-amino(2-(3-(1-octyl-1H-indol-6-yl)-1,2,4-oxadiazol-5-yl)pyrrolidin-1-yl)methaniminium chloride], for which the Ki in test [1] and in test [2] was over 10 µM each time.
With `N=C(N)N1CCC[C@H]1c1nc(-c2ccc(CCC3CCCCC3)c(C(F)(F)F)c2)no1` [Compound 76A, (S)-amino(2-(3-(4-(2-cyclohexylethyl)-3-(trifluoromethyl)phenyl)-1,2,4-oxadiazol-5-yl)pyrrolidin-1-yl)methaniminium 2,2,2-trifluoroacetate], the Ki in test [1] was over 10 µM; in test [2] it was under 1 µM.
As to `C=CCOc1ccc(-c2noc([C@@H]3CCCN3C(=N)N)n2)cc1C(F)(F)F` [Compound 77A, (S)-2-(3-(4-(allyloxy)-3-(trifluoromethyl)phenyl)-1,2,4-oxadiazol-5-yl)pyrrolidine-1-carboximidamide hydrochloride], the Ki in test [1] and in test [2] was over 10 µM throughout.
Regarding `CCCC/C=C/COc1ccc(-c2noc([C@@H]3CCCN3C(=N)N)n2)cc1C(F)(F)F` [Compound 78A, (S,E)-amino(2-(3-(4-(hept-2-en-1-yloxy)-3-(trifluoromethyl)phenyl)-1,2,4-oxadiazol-5-yl)pyrrolidin-1-yl)methaniminium 2,2,2-trifluoroacetate], the Ki in test [1] is over 10 µM; in test [2] it was under 1 µM.
The matching figures for `C=CCCOc1ccc(-c2noc([C@@H]3CCCN3C(=N)N)n2)cc1C(F)(F)F` [Compound 79A, (S)-2-(3-(4-(but-3-en-1-yloxy)-3-(trifluoromethyl)phenyl)-1,2,4-oxadiazol-5-yl)pyrrolidine-1-carboximidamide hydrochloride]: over 10 µM and over 10 µM.
For `CCCC=CCOc1ccc(-c2noc([C@@H]3CCCN3C(=N)N)n2)cc1C(F)(F)F` [Compound 80A, (S)-amino(2-(3-(4-(hex-2-en-1-yloxy)-3-(trifluoromethyl)phenyl)-1,2,4-oxadiazol-5-yl)pyrrolidin-1-yl)methaniminium 2,2,2-trifluoroacetate], the values for the Ki in test [1] and in test [2] were over 10 µM and 1 to 10 µM, respectively.
For `CCCCC=CCOc1ccc(-c2noc([C@@H]3CCCN3C(=N)N)n2)cc1C(F)(F)F` [Compound 81A, (S)-amino(2-(3-(4-(hept-2-en-1-yloxy)-3-(trifluoromethyl)phenyl)-1,2,4-oxadiazol-5-yl)pyrrolidin-1-yl)methaniminium 2,2,2-trifluoroacetate], the Ki in test [1] is over 10 µM; in test [2], under 1 µM.
The matching figures for `CCCCCC=CCOc1ccc(-c2noc([C@@H]3CCCN3C(=N)N)n2)cc1C(F)(F)F` [Compound 82A, (S)-amino(2-(3-(4-(oct-2-en-1-yloxy)-3-(trifluoromethyl)phenyl)-1,2,4-oxadiazol-5-yl)pyrrolidin-1-yl)methaniminium 2,2,2-trifluoroacetate]: over 10 µM and under 1 µM.
Taken in the same sequence, the figures for `CCC/C=C\CCOc1ccc(-c2noc([C@@H]3CCCN3C(=N)N)n2)cc1C(F)(F)F` [Compound 84A, (S,Z)-amino(2-(3-(4-(hept-3-en-1-yloxy)-3-(trifluoromethyl)phenyl)-1,2,4-oxadiazol-5-yl)pyrrolidin-1-yl)methaniminium 2,2,2-trifluoroacetate] were over 10 µM and under 1 µM.
In the case of `CCCC/C=C\CCOc1ccc(-c2noc([C@@H]3CCCN3C(=N)N)n2)cc1C(F)(F)F` [Compound 85A, (S,Z)-amino(2-(3-(4-(oct-3-en-1-yloxy)-3-(trifluoromethyl)phenyl)-1,2,4-oxadiazol-5-yl)pyrrolidin-1-yl)methaniminium 2,2,2-trifluoroacetate], the inhibitory constant (Ki) in test [1] was over 10 µM; in test [2] it was under 1 µM.
On to `N=C(N)N1CCC[C@H]1c1nc(-c2ccc(OC/C=C/c3cccc(Br)c3)c(C(F)(F)F)c2)no1` [Compound 86A, (S,E)-2-(3-(4-((3-(3-bromophenyl)allyl)oxy)-3-(trifluoromethyl)phenyl)-1,2,4-oxadiazol-5-yl)pyrrolidine-1-carboximidamide hydrochloride], for which the Ki was over 10 µM in test [1] and under 1 µM in test [2].
Take `N=C(N)N1CCC[C@H]1c1nc(-c2ccc(OC/C=C/c3ccc(F)cc3)c(C(F)(F)F)c2)no1` [Compound 87A, (S,E)-2-(3-(4-((3-(4-fluorophenyl)allyl)oxy)-3-(trifluoromethyl)phenyl)-1,2,4-oxadiazol-5-yl)pyrrolidine-1-carboximidamide hydrochloride]: the Ki in test [1] was over 10 µM; in test [2] it was under 1 µM.
In the case of `N=C(N)N1CCC[C@H]1c1nc(-c2ccc(OC/C=C/c3ccc(C(F)(F)F)cc3)c(C(F)(F)F)c2)no1` [Compound 88A, (S,E)-amino(2-(3-(3-(trifluoromethyl)-4-((3-(4-(trifluoromethyl)phenyl)allyl)oxy)phenyl)-1,2,4-oxadiazol-5-yl)pyrrolidin-1-yl)methaniminium 2,2,2-trifluoroacetate], the Ki in test [1] was over 10 µM; in test [2], under 1 µM.
Taken in the same sequence, the figures for `N=C(N)N1CCC[C@H]1c1nc(-c2ccc(OC/C=C/c3ccccc3C(F)(F)F)c(C(F)(F)F)c2)no1` [Compound 89A, (S,E)-2-(3-(3-(trifluoromethyl)-4-((3-(2-(trifluoromethyl)phenyl)allyl)oxy)phenyl)-1,2,4-oxadiazol-5-yl)pyrrolidine-1-carboximidamide hydrochloride] were over 10 µM and over 10 µM.
For the molecule `N=C(N)N1CCC[C@H]1c1nc(-c2ccc(OC/C=C/c3cccc(C(F)(F)F)c3)c(C(F)(F)F)c2)no1` [Compound 90A, (S,E)-amino(2-(3-(3-(trifluoromethyl)-4-((3-(3-(trifluoromethyl)phenyl)allyl)oxy)phenyl)-1,2,4-oxadiazol-5-yl)pyrrolidin-1-yl)methaniminium 2,2,2-trifluoroacetate], the values for the Ki in test [1] and in test [2] were over 10 µM and under 1 µM, respectively.
Taken in the same sequence, the figures for `N=C(N)N1CCC[C@H]1c1nc(-c2ccc(OCC/C=C/c3ccc(C(F)(F)F)cc3)c(C(F)(F)F)c2)no1` [Compound 91A, (S,E)-2-(3-(3-(trifluoromethyl)-4-((4-(4-(trifluoromethyl)phenyl)but-3-en-1-yl)oxy)phenyl)-1,2,4-oxadiazol-5-yl)pyrrolidine-1-carboximidamide hydrochloride] were over 10 µM and under 1 µM.
